Measurements: ChEMBL document CHEMBL1201862, “PubChem BioAssay data set” (2004)
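Cultured in 96-well plates, cells were exposed to test compound for 48 hours across five concentrations. The concentration for 50% growth inhibition is given as GI50.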 Active and inactive are the calls of the source. Rule as the data show it: active = GI50 up to about 1.1 µM and inactive = higher.

Tests used:
Assay in all cases: NCI anticancer screen, dose series, 48 h
[1] = system: NCI-H460
[2] = system: LOX IMVI
[3] = system: UACC-257
[4] = system: OVCAR-8
[5] = system: CCRF-CEM
[6] = system: SF-539
[7] = system: IGROV-1
[8] = system: DLD-1
[9] = system: M14
[10] = system: KM12
[11] = system: NCI-H23
[12] = system: HCC 2998
[13] = system: SK-MEL-28
[14] = system: UACC-62
[15] = system: UO-31
[16] = system: SK-OV-3
[17] = system: HL-60
[18] = system: CAKI-1
[19] = system: PC-3
[20] = system: BT-549

Measured: GI50

CC(C)(C)c1cc2c3c(c1)c(=O)c1cccc4c(O)c5cccc(c2=O)c5c-3c41
inactive: [1] 54.1 µM | [2] 41.2 µM | [3] > 100 µM | [4] > 100 µM | [5] 45.1 µM | [6] 10 µM | [7] > 100 µM | [8] 61 µM | [9] 40.7 µM | [10] 38.1 µM | [11] 68.4 µM | [13] 10 µM | [14] > 100 µM | [15] > 100 µM | [16] > 100 µM | [17] 58.5 µM | [18] > 100 µM
active: [12] 0.0105 µM

O=C1c2cccc3cccc(c23)C(=O)N1CCCN1CCN(CCCN2C(=O)c3cccc4cccc(c34)C2=O)CC1
inactive: [1] > 100 µM | [2] > 100 µM | [3] > 100 µM | [4] > 100 µM | [5] 32.8 µM | [6] > 100 µM | [7] > 100 µM | [8] > 100 µM | [9] > 100 µM | [10] > 100 µM | [11] > 100 µM | [12] > 100 µM | [14] > 100 µM | [15] > 100 µM | [16] > 100 µM | [17] > 100 µM | [18] > 100 µM

COc1c(O)c2ccccc2c2cc(O)ccc12
inactive: [1] 7.69 µM | [2] 2 µM | [3] 2.1 µM | [4] 3.88 µM | [5] 6.24 µM | [6] 3.69 µM | [7] 9.57 µM | [8] 8.79 µM | [9] 3.64 µM | [10] 11.6 µM | [11] 2.86 µM | [12] 17.3 µM | [19] 16.6 µM | [13] 4.91 µM | [14] 2.67 µM | [15] 4.04 µM | [16] 20.5 µM | [17] 2.86 µM | [20] 2.43 µM | [18] 11.2 µM

COc1cc(/C=C/c2ccc(Br)cc2)cc(OC)c1OC
inactive: [1] 11.6 µM | [2] 14.1 µM | [3] 13.5 µM | [4] 28.3 µM | [5] 11.8 µM | [6] 11.4 µM | [7] 23.6 µM | [8] 6.93 µM | [9] 14.4 µM | [10] 8.11 µM | [11] 16.3 µM | [12] 7.6 µM | [13] 6.21 µM | [14] 8.02 µM | [15] 9.77 µM | [16] 20.7 µM | [17] 3.74 µM | [18] 6.24 µM

NNC(=O)C(=O)NN=C(C(Cl)(Cl)CO)C(Cl)(Cl)CO
inactive: [1] 44.9 µM | [2] 16.9 µM | [3] 30.6 µM | [4] 21.3 µM | [5] 19.1 µM | [6] 25.2 µM | [7] > 100 µM | [8] 22.6 µM | [9] 24.4 µM | [10] 44.1 µM | [11] 30.5 µM | [12] 31 µM | [13] 25.6 µM | [14] 65.5 µM | [15] 45.7 µM | [16] > 100 µM | [17] 22.1 µM | [18] 26.9 µM

Cc1ccc2c(c1)NC(=O)C(N=[N+]=[N-])(c1ccccc1)C2=O (centres undefined)
inactive: [1] 23.6 µM | [2] 18.3 µM | [3] 29.5 µM | [4] 27.2 µM | [5] 28.4 µM | [6] 35.5 µM | [7] 32.8 µM | [8] 43 µM | [9] 17 µM | [10] 15.2 µM | [11] 20 µM | [12] > 100 µM | [13] 45.1 µM | [14] 22.2 µM | [15] 29 µM | [16] 33.9 µM | [17] 16.4 µM | [18] 24.4 µM
